From the supplement of paper PMC10307832

Columns and labels:
Experiment in all cases: relative viability (nuclei count vs DMSO), 5 days (fraction); higher = more cells survive
[1] = compound: CC(C)N(CCCNC(=O)Nc1ccc(C(C)(C)C)cc1)C[C@H]1O[C@@H](n2ccc3c(N)ncnc32)[C@H](O)[C@@H]1O + CC(=O)Nc1cccc(-n2c(=O)n(C3CC3)c(=O)c3c(Nc4ccc(I)cc4F)n(C)c(=O)c(C)c32)c1 [Trametinib] (partner 0.02 µM)
Method in brief: (§1)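 Relative viability is defined as nuclei in treated wells over nuclei in vehicle wells. Duplicate plates were run and medians reported. Lung cancer cell lines in 1536-well plates were dosed by pin tool one day after seeding, with one drug or with a fixed anchor-drug dose plus five library-drug doses (not always all listed) in √10 steps, and nuclei were counted after 5 days.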

[2] = compound: CC(C)N(CCCNC(=O)Nc1ccc(C(C)(C)C)cc1)C[C@H]1O[C@@H](n2ccc3c(N)ncnc32)[C@H](O)[C@@H]1O + CS(=O)(=O)N1CCN(Cc2cc3nc(-c4cccc5[nH]ncc45)nc(N4CCOCC4)c3s2)CC1 [Pictilisib] (partner 1 µM)
Method in brief: as §1

[3] = compound: CC(C)=CC[C@@H](O)C1=CC(=O)c2c(O)ccc(O)c2C1=O [Shikonin] + Cc1nc(Nc2ncc(C(=O)Nc3c(C)cccc3Cl)s2)cc(N2CCN(CCO)CC2)n1 [Dasatinib] (partner 0.075 µM)
Method in brief: as §1

[4] = compound: CC(C)N(CCCNC(=O)Nc1ccc(C(C)(C)C)cc1)C[C@H]1O[C@@H](n2ccc3c(N)ncnc32)[C@H](O)[C@@H]1O + COc1cc2c(Oc3ccc(NC(=O)C4(C(=O)Nc5ccc(F)cc5)CC4)cc3F)ccnc2cc1OCCCN1CCOCC1 [Foretinib] (partner 0.25 µM)
Method in brief: as §1

Row | Cell Line | relative viability ([1]; first compound 0.08 µM) | relative viability ([1]; first compound 0.253 µM) | relative viability ([1]; first compound 0.8 µM) | relative viability ([1]; first compound 2.53 µM) | relative viability ([1]; first compound 8 µM) | relative viability ([2]; first compound 0.08 µM) | relative viability ([2]; first compound 0.253 µM) | relative viability ([2]; first compound 0.8 µM) | relative viability ([2]; first compound 2.53 µM) | relative viability ([2]; first compound 8 µM) | relative viability ([3]; first compound 0.01 µM) | relative viability ([3]; first compound 0.1 µM) | relative viability ([3]; first compound 0.3162 µM) | relative viability ([3]; first compound 1 µM) | relative viability ([4]; first compound 0.08 µM) | relative viability ([4]; first compound 0.253 µM) | relative viability ([4]; first compound 2.53 µM) | relative viability ([4]; first compound 8 µM) | relative viability ([4]; first compound 0.8 µM)
1 | HCC-44 | 1.11 | 1.09 | 0.936 | 1.11 | 1.18 | 0.542 | 0.644 | 0.488 | 0.734 | 0.578 | – | – | – | – | – | – | – | – | –
2 | HCC-827 | 0.499 | 0.473 | 0.572 | 0.537 | 0.505 | 0.951 | 1.1 | 0.886 | 1.07 | 0.9 | 0.266 | 0.357 | 0.316 | 0.344 | 0.907 | 1.07 | 0.989 | 0.91 | –
3 | NCI-H1623 | – | – | – | – | – | – | – | – | – | – | 0.475 | 0.541 | 0.569 | 0.635 | 0.836 | 0.952 | 0.83 | 0.801 | 0.795
4 | NCI-H2405 | 0.669 | 0.591 | 0.598 | 0.765 | 0.644 | 0.506 | – | 0.358 | 0.46 | 0.429 | 0.206 | 0.235 | 0.256 | 0.256 | 1.02 | 1.07 | 1.12 | 1.03 | 1.04
5 | RERF-LC-KJ | 0.902 | 0.938 | 0.815 | 0.911 | 0.783 | 0.597 | 0.511 | 0.525 | 0.493 | 0.501 | 0.991 | 0.975 | 0.834 | 0.661 | 0.906 | 0.814 | 0.794 | 0.79 | 0.888
6 | NCI-H1651 | 0.84 | 0.85 | 0.795 | 0.859 | 0.894 | 0.601 | 0.567 | 0.498 | 0.565 | 0.6 | 0.385 | 0.391 | 0.37 | 0.438 | 0.876 | 0.79 | 0.871 | 0.808 | 0.86
7 | HARA | 0.736 | 0.412 | 0.54 | 0.511 | 0.508 | 0.506 | 0.479 | 0.344 | 0.311 | 0.31 | 0.239 | 0.281 | 0.299 | 0.28 | 0.751 | 0.878 | 0.6 | 0.738 | 0.756
8 | NCI-H1650 | 0.686 | 0.521 | 0.219 | 0.645 | 0.441 | 0.55 | 0.52 | – | 0.56 | 0.624 | 0.299 | 0.336 | 0.267 | 0.21 | 1.12 | 0.939 | 1.32 | 0.987 | –
9 | NCI-H1395 | 0.956 | 0.986 | 0.979 | 1.01 | 1.04 | 0.595 | 0.55 | – | 0.59 | 0.738 | 0.376 | 0.403 | 0.45 | 0.449 | 0.957 | 0.839 | 0.967 | 0.853 | 0.909
10 | NCI-H520 | 0.681 | 0.513 | 0.599 | 0.667 | 0.695 | 0.273 | 0.247 | 0.215 | 0.282 | 0.301 | 0.294 | 0.218 | 0.2 | 0.189 | 0.685 | 0.878 | 0.817 | 0.704 | 0.644
11 | LU99A | 0.509 | 0.44 | 0.519 | 0.504 | 0.508 | 0.332 | 0.287 | 0.411 | 0.369 | 0.312 | 0.52 | 0.756 | 0.594 | 0.663 | 0.795 | 0.782 | 0.767 | 0.749 | 0.78
12 | NCI-H1355 | 0.419 | 0.416 | 0.388 | 0.458 | 0.38 | 0.376 | 0.337 | – | 0.518 | 0.404 | 0.6 | 0.676 | 0.721 | 0.787 | 0.755 | 0.839 | 0.941 | 0.972 | 0.933
13 | HCC-78 | 0.716 | 0.867 | 0.804 | 0.586 | 0.736 | 0.156 | 0.196 | 0.263 | 0.192 | 0.212 | 0.39 | 0.464 | 0.363 | 0.417 | 0.509 | 0.497 | 0.524 | 0.602 | 0.5
14 | NCI-H1563 | – | – | – | – | – | 0.678 | 0.607 | 0.616 | 0.679 | 0.636 | 0.379 | 0.435 | 0.467 | 0.458 | 0.952 | 0.975 | 0.957 | 0.931 | 0.988
15 | HCC-15 | 0.338 | 0.363 | 0.401 | 0.362 | 0.351 | 0.697 | 0.695 | 0.643 | 0.732 | 0.701 | 0.637 | 0.799 | 0.66 | 0.65 | 0.948 | 1.04 | 0.998 | 0.981 | 1.11
16 | EKVX | 0.392 | 0.339 | 0.376 | 0.359 | 0.327 | 0.454 | 0.407 | 0.446 | 0.468 | 0.423 | 0.554 | 0.442 | 0.5 | 0.618 | 0.787 | 0.793 | 0.801 | 0.665 | 0.804
17 | NCI-H2126 | 0.551 | 0.572 | 0.555 | 0.577 | 0.58 | 0.499 | 0.476 | 0.415 | 0.529 | 0.48 | 0.599 | 0.595 | 0.656 | 0.685 | 1.18 | 1.04 | 1.13 | 1.2 | 1.16
18 | LK-2 | 0.879 | 0.493 | 0.681 | 0.636 | 0.694 | 0.56 | 0.532 | 0.651 | 0.644 | 0.609 | 0.273 | 0.258 | 0.228 | 0.267 | 1.36 | 0.816 | 1.2 | 1.44 | 1.36
